{"source": "patent US20220362275A1", "about": "“Method and Compositions for Treating Glioblastoma” (PHOENIX BIOTECHNOLOGY, INC., priority 2019, published 2022)", "key": {"GBM [1]": {"test_system": "GBM", "conditions": "cited from earlier work"}, "[2]": {"conditions": "cited from earlier work"}, "GS28 stem cell line": {"test_system": "GS28 stem cell line", "assay": "High throughput growth/viability assay (Cell Titer Glo-3D), GS28", "format": "cell-based", "conditions": "FIG. 17D", "protocol": "(§1) A total of 500 GBM9 cells or 1,000 GS28 cells per well suspended in 50 ul of media are seeded into Greiner Black 384-well plates (Cat #781091) using Multidrop Combi liquid dispenser (ThermoFisher).\n(§2) The cells are allowed to recover and form a monolayer overnight at 37 C in a humidified chamber with 5% CO2.\n(§3) After recovery, 50 nl of each drug are transferred into well using an Echo 550 acoustic dispensing platform (Labcyte).\n(§4) In the combination screen, two or three drugs are tested with a fixed volume of DMSO ([…]) and two biological replicates. Each assay plate contains a fixed concentration of drug in addition to a negative control (0.1% DMSO), a positive control (10 uM Doxorubicin), and an 8-point dose response curve of the positive controls. Each well image is taken using the ImageXpress Micro Conforcal High Content Imaging System (MolecularDevices) everyday four times.\n(§5) After 72 hr incubation in the presence of drug, plates are aspirated for left 25 ul and then, 25 ul of Cell Titer Glo-3D (Promega) are added and incubated for 20 minutes. Assay plates are read on the Synergy Neo2 Hybrid Multi-Mode Microplate Reader (BioTek)."}, "GBM9 stem cell line": {"test_system": "GBM9 stem cell line", "assay": "High throughput growth/viability assay (Cell Titer Glo-3D), GBM9", "format": "cell-based", "conditions": "FIG. 17E", "protocol": "as §1, §2, §3, §4, §5"}, "[3]": {"assay": "Oral bioavailability anticipated from human clinical data", "conditions": "in vivo, based on human clinical data, read-out: part of an administered dose orally bioavailable"}, "GBM [4]": {"test_system": "GBM", "conditions": "addition to standard treatment; cited from earlier work"}, "[5]": {"test_system": "caspase 3, 8 and 9 in human GBM U87MG, U251 and T98 cells", "assay": "Caspase 3, 8 and 9 enzymatic activity (chromogenic substrates)", "format": "cell-based", "conditions": "pan-caspase inhibitor added", "protocol": "For cell cycle analysis, cells (2.5×10^6) grown in 100-mm dishes were treated with PBI-05204 (0.5-2.5 μg/ml) for 24 hr. Cells were subjected to trypsinization and centrifugation, and the pellets were suspended and washed in 1× phosphate-buffered saline solution (PBS) and were fixed overnight in 70% ethanol at 4° C. The cells were then washed with 1×PBS and were suspended in PBTB staining solution containing PBS, 0.5% bovine serum albumin (BSA), 0.005% Tween-20, propidium iodide (10 μg/ml) and DNase-free RNase (1 μg/ml). Cells were incubated in the dark for 30 min at 37° C. before fluorescence-activated cell-sorting (FACS) analysis using a BD FACS Caliber flow cytometer (BD Biosciences, San Jose, Calif.). The percentage of cells in each phase of the cell cycle was estimated from the DNA histogram content. Apoptosis was evaluated by APOSTRAND™ ELISA apoptosis detection kit (3V Chimica S.r.l. Rome, Italy) and by caspase-specific chromogenic substrates at 450 nm in an ELISA plate reader such as Ac-DEVD-pNA (caspase-3), Ac-IETD-pNA (caspase 8) and Ac-LEHD-pNA (caspase 9) purchased from Kaneka Eurogentec SA (Seraing, Belgium)."}, "[6]": {"conditions": "all concentrations ranging from 1×10^−4.5 to 1×10^−7 M"}}, "note": "Entries after “also recorded” stand apart in the source; their conditions may differ. Like-named read-outs stand apart in the source and are kept apart here.", "data": [{"molecule": "Cn1nnc2c(C(N)=O)ncn2c1=O", "note": "[TMZ, temozolomide]", "values": [{"measurement": "grade ≥3 toxicity", "setting": "GBM [1]; ddTMZ arm", "result": 53, "unit": "%"}, {"measurement": "grade ≥3 toxicity", "setting": "GBM [1]; sdTMZ arm", "result": 34, "unit": "%"}, {"measurement": "entry into the cerebrospinal fluid", "setting": "[2]; in vivo", "result": "readily enters"}, {"measurement": "pharmacokinetics", "setting": "[2]; in vivo", "result": "linear"}, {"measurement": "bioavailability", "setting": "[2]; oral", "result": "excellent"}]}, {"molecule": "C[C@H]1[C@H](C)CC[C@]2(C(=O)O)CC[C@]3(C)C(=CC[C@@H]4[C@@]5(C)CC[C@H](O)C(C)(C)[C@@H]5CC[C@]43C)[C@H]12", "note": "[Ursolic acid, ursolic acid]", "values": [{"measurement": "activity at concentrations below about 5.6 microM", "setting": "GS28 stem cell line", "result": "little to no activity"}, {"measurement": "activity at concentrations below about 10 microM", "setting": "GBM9 stem cell line", "result": "little to no activity"}]}, {"molecule": "CO[C@H]1C[C@H](O[C@H]2CC[C@@]3(C)[C@H](CC[C@@H]4[C@@H]3CC[C@]3(C)[C@@H](C5=CC(=O)OC5)[C@@H](OC(C)=O)C[C@]43O)C2)O[C@@H](C)[C@@H]1O", "note": "[oleandrin]", "values": [{"measurement": "bioavailability", "setting": "[3]", "result": "50 to 75", "unit": "%"}]}, {"molecule": "CC1(C)CC[C@]2(C(=O)O)CC[C@]3(C)C(=CC[C@@H]4[C@@]5(C)CC[C@H](O)C(C)(C)[C@@H]5CC[C@]43C)[C@@H]2C1", "note": "[oleanolic acid]", "values": [{"measurement": "activity (inhibition of growth of GBM stem cells)", "setting": "GS28 stem cell line; [6]", "result": "very poor activity"}, {"measurement": "activity (inhibition of growth of GBM stem cells)", "setting": "GBM9 stem cell line; [6]", "result": "very poor activity; also recorded: little to no activity"}]}, {"molecule": "bevacizumab", "values": [{"measurement": "overall survival (OS)", "setting": "GBM [4]", "result": "no increase"}, {"measurement": "progression-free survival (PFS)", "setting": "GBM [4]", "result": "improved"}]}, {"molecule": "z-VAD-fmk", "values": [{"measurement": "PBI-05204 induced caspase 3 activity", "setting": "[5]", "result": "largely inhibited"}]}]}
